Usually IC50 stands for the concentration that inhibits the measured activity by half.

The values below come from patent US5143906A, “Kedarcidin antitumor chromophore and pharmaceutical composition containing same” (Bristol-Myers Squibb Company, priority 1991, dated 1992).

The subject of data set [1] is iv implanted P388 leukemia. Nature of the data set: Antitumor activity against iv implanted P388 leukemia. Details: Med. surv. time: unit not given here. The format is in vivo, murine (CDF1 mice). An excerpt:
(§1) The P388 tumor was maintained in ascitic form in DBA/2 mice. Experimental tumor models used CDF^1 mice implanted via the intraperitoneal or intravenous route with 1×10^6 leukemia cells on day 0 and dosed with drugs according to the indicated route and schedule. Mice were weighed on day 0 and on day 5 or 6. Weight loss of 20% or greater was an indicator of drug toxicity. Each dose group consisted of 6 mice with 10 mice in the untreated control group. The dosing schedule was Q1DX1;1. Death checks were performed daily and the median life span of each group determined. […] Experiments were terminated on or about day 30.

Data set [2] concerns ip implanted P388 leukemia. Kind of data set: Antitumor activity against ip implanted P388 leukemia. Format: in vivo, murine (CDF1 mice). Details: Med. surv. time: unit not given here.
Text: as §1

The subject of data set [3] is human colon adenocarcinoma HCT116 drug sensitive line. Kind of data set: In vitro cytotoxicity assay (XTT), HCT116. The format is cell-based. Particulars: Homo sapiens, HCT-116; HCT116, 72 h; VP-16 values: mean of triplicate determinations from last 6 experiments; read-out: IC50. The method, then:
(§2) The A2780/DDP cell line is reported to be resistant through enhanced DNA repair mechanisms and elevated GSH/GST levels. Cells were cultured in McCoy's media and 10% fetal bovine serum. When in log phase growth, 4×10^3 cells/well were plated into 96 well microtiter plates and incubated at 37° C. in […] /5% CO2 for 24 hours to allow cell attachment. Compounds were added to the top row of wells, serially diluted (4 fold dilutions) and incubated for an additional 72 hours. The number of viable cells in each well was then quantitated as previously described^2 by adding 0.05 mg/ml final concentration tetrazolium stain (XTT) in the presence of 0.005 mM final concentration phenazine methosulfate. After incubation at room temperature for 3 hours to allow color development, optical density values were measured using a Dynatech MR600 plate reader at […]. IC50 values (drug concentration inhibiting cell growth by 50%) were calculated using linear regression analysis of the optical density readings. Triplicate determinations on separate 96 well plates were done for each drug on each cell line tested.
Background: Tetrazolium dyes change colour on reduction, which living cells bring about.

The subject of data set [4] is HCT116/VP35 drug resistant cell line. Kind of data set: In vitro cytotoxicity assay (XTT), HCT116/VP35. The format is cell-based, human. Conditions: Homo sapiens, HCT-116; HCT116/VP35, 72 h; VP-16 values: mean of triplicate determinations from last 6 experiments; read-out: IC50. Here is the method:
as §2

Data set [5] has as its system human ovarian carcinoma A2780 drug sensitive cell line. Kind of data set: In vitro cytotoxicity assay (XTT), A2780. The format is cell-based. Conditions: Homo sapiens; A2780, 72 h; VP-16 values: mean of triplicate determinations from last 6 experiments; read-out: IC50. The method, then: as §2
In data set [6] the test system is A2780/DDP drug resistant cell line. Nature of the data set: In vitro cytotoxicity assay (XTT), A2780/DDP. The format is cell-based, human. Here is the method: as §2
Data set [7] has as its system HCT116/VM46 drug resistant cell line. Nature of the data set: In vitro cytotoxicity assay (XTT), HCT116/VM46. Format: cell-based, human. Conditions: Homo sapiens, HCT-116/VM46; HCT116/VM46, 72 h; VP-16 values: mean of triplicate determinations from last 6 experiments; read-out: IC50. Here is the method:
as §2

Molecules are shown by their SMILES. ≈ marks a conversion by molar mass, not a printed value.

Consider `CO[C@@]12[C@H](COC(N)=O)C3=C(C(=O)C(C)=C(N)C3=O)N1C[C@@H]1N[C@@H]12` [Mitomycin C, reference compound], for which the “% T/C” value in data set [1] (Exp. 8305, 0.8 mg/kg/dose) was determined as 114%; in data set [1] (Exp. 8305, 1.6 mg/kg/dose), 143%; in data set [1] (Exp. 8305, 3.2 mg/kg/dose) it was 157%; in data set [1] (Exp. 8305, 4.8 mg/kg/dose), 193%; in data set [1] (Exp. 8328, 1.6 mg/kg/dose) it was 129%; in data set [1] (Exp. 8328, 3.2 mg/kg/dose), 143%. For the same compound, the “% T/C” value in data set [2] (Exp. 8305, 3.2 mg/kg/dose) is recorded as 200%; in data set [2] (Exp. 8305, 4.8 mg/kg/dose), 230%; in data set [2] (Exp. 8328, 3.2 mg/kg/dose), 190%; in data set [2] (Exp. 8328, 4.8 mg/kg/dose), 200%. The Av. wgt. change is on record as 0.4 g in data set [1] (Exp. 8305, 0.8 mg/kg/dose); -0.3 g in data set [1] (Exp. 8305, 1.6 mg/kg/dose); 0.5 g in data set [1] (Exp. 8305, 3.2 mg/kg/dose); -0.8 g in data set [1] (Exp. 8305, 4.8 mg/kg/dose); -0.1 g in data set [1] (Exp. 8328, 1.6 mg/kg/dose); -0.7 g in data set [1] (Exp. 8328, 3.2 mg/kg/dose). Further, the Av. wgt. change in data set [2] (Exp. 8305, 3.2 mg/kg/dose) is on record as -0.5 g; in data set [2] (Exp. 8305, 4.8 mg/kg/dose) it was -0.7 g; in data set [2] (Exp. 8328, 3.2 mg/kg/dose) it was -0.8 g; in data set [2] (Exp. 8328, 4.8 mg/kg/dose) it was -0.5 g. In addition, the Med. surv. time in data set [1] (Exp. 8305, 0.8 mg/kg/dose) stood at 8.0; in data set [1] (Exp. 8305, 1.6 mg/kg/dose) it was 10.0; in data set [1] (Exp. 8305, 3.2 mg/kg/dose), 11.0; in data set [1] (Exp. 8305, 4.8 mg/kg/dose), 13.5; in data set [1] (Exp. 8328, 1.6 mg/kg/dose) it was 9.0; in data set [1] (Exp. 8328, 3.2 mg/kg/dose), 10.0. The Med. surv. time in data set [2] (Exp. 8305, 3.2 mg/kg/dose) is 20.0; in data set [2] (Exp. 8305, 4.8 mg/kg/dose), 23.0; in data set [2] (Exp. 8328, 3.2 mg/kg/dose), 19.0; in data set [2] (Exp. 8328, 4.8 mg/kg/dose), 20.0. For the same compound, the “No. of mice alive on d 5” value is given as 6/6 in data set [1] (Exp. 8305, 0.8 mg/kg/dose); 6/6 in data set [1] (Exp. 8305, 1.6 mg/kg/dose); 6/6 in data set [1] (Exp. 8305, 3.2 mg/kg/dose); 6/6 in data set [1] (Exp. 8305, 4.8 mg/kg/dose); 6/6 in data set [1] (Exp. 8328, 1.6 mg/kg/dose); 6/6 in data set [1] (Exp. 8328, 3.2 mg/kg/dose). In addition, the “No. of mice alive on d 5” value in data set [2] (Exp. 8305, 3.2 mg/kg/dose) is reported as 6/6; in data set [2] (Exp. 8305, 4.8 mg/kg/dose), 6/6; in data set [2] (Exp. 8328, 3.2 mg/kg/dose), 6/6; in data set [2] (Exp. 8328, 4.8 mg/kg/dose), 6/6.
As to `COc1cc([C@@H]2c3cc4c(cc3[C@@H](O[C@@H]3O[C@@H]5CO[C@@H](C)O[C@H]5[C@H](O)[C@H]3O)[C@H]3COC(=O)[C@H]23)OCO4)cc(OC)c1O` [VP-16, etoposide, reference compound], the IC50 in data set [3] was 0.69 mg/L (≈ 1.17 µM); in data set [4] it was 8.76 mg/L (≈ 14.9 µM); in data set [5], 0.057 mg/L (≈ 0.0968 µM); in data set [6] (Homo sapiens, A2780/DDP, 72 h, VP-16 values: mean of triplicate determinations from last 6 experiments, read-out: IC50) it was 0.379 mg/L (≈ 0.644 µM); in data set [7], 3.25 mg/L (≈ 5.53 µM). Also, the “fold less potent on the resistant cell line compared to the sensitive cell line” value in data set [6] (A2780/DDP vs A2780, 4320 min) is “about 6.6 fold”.
